According to ChEMBL document CHEMBL3046449, “Selective Herbicidal Activities of Ethyl 5-(4, 6-Dimethoxypyrimidin-2-ylcarbamoylsulfamoyl)-1-methylpyrazole-4-carboxylate and Its Related Compounds” (J Pestic Sci, 1990):

Legend:
unidentified [1] = assay: Herbicidal activity against broadleaf weed assessed as weed control in transplanted rice field at 30 g/ha treated after 10 days transplanting; type: functional
Echinochloa crus-galli [2] = assay: Herbicidal activity against Echinochloa crus-galli (barnyard grass) assessed as weed control in transplanted rice field at 20 g/ha treated after 3 days transplanting; type: functional
Echinochloa crus-galli [3] = assay: Herbicidal activity against Echinochloa crus-galli (barnyard grass) assessed as growth inhibition measured after 2 days by preemergence activity assay; type: functional
Sagittaria pygmaea [4] = assay: Herbicidal activity against Sagittaria pygmaea assessed as weed control in transplanted rice field at 30 g/ha treated after 15 days transplanting; type: functional
[5] = test system: Schoenoplectiella juncoides; assay: Herbicidal activity against Schoenoplectiella juncoides assessed as weed control in transplanted rice field at 20 g/ha treated after 7 days transplanting; type: functional
Oryza sativa [6] = assay: Effect on Oryza sativa (rice) plant growth in transplanted Oryza sativa field assessed as plant height at 20 g/ha treated after 7 days transplanting; type: organism-based; details: in vivo, other, 168 h
Oryza sativa [7] = assay: Effect on Oryza sativa (rice) plant growth in transplanted Oryza sativa field assessed as number of tillers at 30 g/ha treated after 3 days transplanting; type: organism-based; details: in vivo, other, 72 h
[8] = test system: Schoenoplectiella juncoides; assay: Herbicidal activity against Schoenoplectiella juncoides assessed as growth inhibition in paddy condition under greenhouse at 5 g/ha measured after 18 days by preemergence activity assay; type: functional; details: pre-emergence, 432 h, read-out: GI
Sagittaria pygmaea [9] = assay: Herbicidal activity against Sagittaria pygmaea assessed as weed control in transplanted rice field at 30 g/ha treated after 7 days transplanting; type: functional
Alisma canaliculatum = assay: Herbicidal activity against three to four-leaf stage Alisma canaliculatum assessed as growth inhibition treated 7 to 15 days after planting measured by post-emergence activity assay; type: functional
Oryza sativa [10] = assay: Effect on Oryza sativa (rice) plant growth in transplanted Oryza sativa field assessed as number of tillers at 30 g/ha treated after 10 days transplanting; type: organism-based; details: in vivo, other, 240 h
Oryza sativa [11] = assay: Effect on Oryza sativa (rice) plant growth in transplanted Oryza sativa field assessed as number of tillers at 20 g/ha treated after 7 days transplanting; type: organism-based; details: in vivo, other, 168 h
unidentified [12] = assay: Herbicidal activity against broadleaf weed assessed as weed control in transplanted rice field at 30 g/ha treated after 7 days transplanting; type: functional
Cyperus serotinus [13] = assay: Herbicidal activity against Cyperus serotinus assessed as weed control in transplanted rice field at 30 g/ha treated after 3 days transplanting; type: functional
Echinochloa crus-galli [14] = assay: Herbicidal activity against 1.5 leaf stage Echinochloa crus-galli (barnyard grass) assessed as growth inhibition treated 7 to 15 days after planting measured by postemergence activity assay; type: functional
[15] = test system: Schoenoplectiella juncoides; assay: Herbicidal activity against Schoenoplectiella juncoides assessed as weed control in transplanted rice field at 30 g/ha treated after 15 days transplanting; type: functional
Oryza sativa [16] = assay: Effect on Oryza sativa (rice) plant growth in transplanted Oryza sativa field assessed as number of tillers at 30 g/ha treated after 15 days transplanting; type: organism-based; details: in vivo, other, 360 h
Sagittaria pygmaea [17] = assay: Herbicidal activity against Sagittaria pygmaea assessed as weed control in transplanted rice field at 20 g/ha treated after 7 days transplanting; type: functional
Cyperus serotinus [18] = assay: Herbicidal activity against Cyperus serotinus assessed as weed control in transplanted rice field at 20 g/ha treated after 3 days transplanting; type: functional
Oryza sativa [19] = assay: Effect on Oryza sativa (rice) plant growth in transplanted Oryza sativa field assessed as plant height at 30 g/ha treated after 7 days transplanting; type: organism-based; details: in vivo, other, 168 h
Pontederia vaginalis = assay: Herbicidal activity against Monochoria vaginalis assessed as weed control in transplanted rice field at 30 g/ha treated after 15 days transplanting; type: functional

CCOC(=O)c1cnn(C)c1S(=O)(=O)NC(=O)Nc1nc(OC)cc(OC)n1 [PYRAZOSULFURON ETHYL]
Activity (unidentified [1]): 100%
Activity (Echinochloa crus-galli [2]): 98%
I75 (Echinochloa crus-galli [3]): 13 gAi/ha
Activity (Sagittaria pygmaea [4]): 95%
Activity [5]: 100%
Activity (Oryza sativa [6]): 107%
Activity (Oryza sativa [7]): 99%
inhibition of growth at 5 g/ha [8]: > 90%
Activity (Sagittaria pygmaea [9]): 98%
I75 (Alisma canaliculatum): 1.4 gAi/ha
Activity (Oryza sativa [10]): 101%
Activity (Oryza sativa [11]): 96%
Activity (unidentified [12]): 100%
Activity (Cyperus serotinus [13]): 100%
I75 (Echinochloa crus-galli [14]): 18 gAi/ha
Activity [15]: 97%
Activity (Oryza sativa [16]): 105%
Activity (Sagittaria pygmaea [17]): 98%
Activity (Cyperus serotinus [18]): 98%
Activity (Oryza sativa [19]): 104%
Activity (Pontederia vaginalis): 97%
